This is an account of results in paper PMC6101970 (Oncogene, 2018).

This experiment concerns the target ATR/ATRIP (human) (Homo sapiens, UniProt Q13535). Put plainly: HTRF kinase assay, GST-cMyc-p53 Ser15 phosphorylation. The experiment is classed as biochemical.

ATR/ATRIP (human), sequence (Q13535 whole entry): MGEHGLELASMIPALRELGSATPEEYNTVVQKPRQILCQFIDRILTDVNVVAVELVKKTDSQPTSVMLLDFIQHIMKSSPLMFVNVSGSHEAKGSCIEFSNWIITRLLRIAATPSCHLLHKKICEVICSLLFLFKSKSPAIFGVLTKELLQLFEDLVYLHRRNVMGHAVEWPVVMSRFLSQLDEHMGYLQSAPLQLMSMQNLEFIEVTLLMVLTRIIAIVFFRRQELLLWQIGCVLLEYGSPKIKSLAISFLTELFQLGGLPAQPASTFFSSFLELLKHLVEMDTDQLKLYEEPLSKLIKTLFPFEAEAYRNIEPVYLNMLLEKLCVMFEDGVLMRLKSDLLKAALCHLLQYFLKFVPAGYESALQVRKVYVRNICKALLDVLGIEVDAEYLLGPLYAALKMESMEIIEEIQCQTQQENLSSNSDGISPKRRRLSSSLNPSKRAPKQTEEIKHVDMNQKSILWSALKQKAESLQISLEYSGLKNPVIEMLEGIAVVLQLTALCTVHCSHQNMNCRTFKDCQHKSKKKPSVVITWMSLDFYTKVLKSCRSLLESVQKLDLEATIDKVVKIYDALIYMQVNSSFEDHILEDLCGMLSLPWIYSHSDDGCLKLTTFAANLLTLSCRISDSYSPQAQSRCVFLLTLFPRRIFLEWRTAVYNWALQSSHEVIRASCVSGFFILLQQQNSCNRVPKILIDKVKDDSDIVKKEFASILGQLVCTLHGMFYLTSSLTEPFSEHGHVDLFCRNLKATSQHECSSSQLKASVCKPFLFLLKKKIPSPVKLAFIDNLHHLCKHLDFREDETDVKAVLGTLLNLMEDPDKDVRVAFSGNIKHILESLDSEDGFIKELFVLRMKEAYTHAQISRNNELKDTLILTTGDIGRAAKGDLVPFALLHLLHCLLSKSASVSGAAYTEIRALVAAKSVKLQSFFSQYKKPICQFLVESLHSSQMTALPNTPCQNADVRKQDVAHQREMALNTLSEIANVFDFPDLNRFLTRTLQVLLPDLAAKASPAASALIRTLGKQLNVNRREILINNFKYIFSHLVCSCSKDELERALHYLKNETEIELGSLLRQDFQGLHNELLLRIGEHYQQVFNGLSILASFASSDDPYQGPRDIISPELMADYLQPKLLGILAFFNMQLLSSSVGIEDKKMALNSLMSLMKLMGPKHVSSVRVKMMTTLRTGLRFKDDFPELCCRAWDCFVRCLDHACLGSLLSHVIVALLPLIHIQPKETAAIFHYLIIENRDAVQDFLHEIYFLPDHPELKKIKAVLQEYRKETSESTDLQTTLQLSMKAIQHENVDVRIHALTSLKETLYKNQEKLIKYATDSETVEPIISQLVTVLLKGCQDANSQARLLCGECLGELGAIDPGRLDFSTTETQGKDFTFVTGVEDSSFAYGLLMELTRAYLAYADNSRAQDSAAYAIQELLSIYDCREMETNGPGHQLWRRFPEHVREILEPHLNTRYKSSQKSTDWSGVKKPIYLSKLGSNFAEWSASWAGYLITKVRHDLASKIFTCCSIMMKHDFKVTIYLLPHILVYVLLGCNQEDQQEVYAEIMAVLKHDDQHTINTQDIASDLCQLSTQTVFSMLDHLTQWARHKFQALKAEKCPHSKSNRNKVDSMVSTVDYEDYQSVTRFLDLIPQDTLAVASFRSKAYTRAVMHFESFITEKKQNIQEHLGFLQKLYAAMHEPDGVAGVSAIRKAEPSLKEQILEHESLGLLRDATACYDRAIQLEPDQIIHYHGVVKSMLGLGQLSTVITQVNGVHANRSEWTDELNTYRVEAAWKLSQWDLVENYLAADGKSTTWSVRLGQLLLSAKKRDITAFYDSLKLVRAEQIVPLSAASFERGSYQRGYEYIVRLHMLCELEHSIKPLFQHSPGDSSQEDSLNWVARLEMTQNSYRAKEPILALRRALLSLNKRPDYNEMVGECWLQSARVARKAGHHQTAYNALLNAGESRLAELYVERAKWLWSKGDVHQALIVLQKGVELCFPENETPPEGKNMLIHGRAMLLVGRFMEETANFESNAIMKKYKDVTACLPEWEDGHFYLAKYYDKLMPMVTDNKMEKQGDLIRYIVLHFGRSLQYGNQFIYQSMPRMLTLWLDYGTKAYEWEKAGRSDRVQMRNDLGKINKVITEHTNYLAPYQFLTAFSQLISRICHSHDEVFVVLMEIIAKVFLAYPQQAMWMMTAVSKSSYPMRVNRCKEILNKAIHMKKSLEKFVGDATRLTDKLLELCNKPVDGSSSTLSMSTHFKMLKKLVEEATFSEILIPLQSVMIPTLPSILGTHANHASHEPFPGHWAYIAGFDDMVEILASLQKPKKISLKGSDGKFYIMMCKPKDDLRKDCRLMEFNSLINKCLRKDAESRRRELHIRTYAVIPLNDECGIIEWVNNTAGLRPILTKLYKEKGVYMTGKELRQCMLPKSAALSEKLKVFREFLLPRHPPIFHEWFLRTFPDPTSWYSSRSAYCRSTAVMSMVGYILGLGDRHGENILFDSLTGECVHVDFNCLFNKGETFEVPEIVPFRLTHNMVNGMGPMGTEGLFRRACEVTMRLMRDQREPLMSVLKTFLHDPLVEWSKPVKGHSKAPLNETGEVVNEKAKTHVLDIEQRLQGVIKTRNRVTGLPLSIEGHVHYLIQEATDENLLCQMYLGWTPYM
ATR/ATRIP (human), sequence (Q8WXE1 whole entry partner): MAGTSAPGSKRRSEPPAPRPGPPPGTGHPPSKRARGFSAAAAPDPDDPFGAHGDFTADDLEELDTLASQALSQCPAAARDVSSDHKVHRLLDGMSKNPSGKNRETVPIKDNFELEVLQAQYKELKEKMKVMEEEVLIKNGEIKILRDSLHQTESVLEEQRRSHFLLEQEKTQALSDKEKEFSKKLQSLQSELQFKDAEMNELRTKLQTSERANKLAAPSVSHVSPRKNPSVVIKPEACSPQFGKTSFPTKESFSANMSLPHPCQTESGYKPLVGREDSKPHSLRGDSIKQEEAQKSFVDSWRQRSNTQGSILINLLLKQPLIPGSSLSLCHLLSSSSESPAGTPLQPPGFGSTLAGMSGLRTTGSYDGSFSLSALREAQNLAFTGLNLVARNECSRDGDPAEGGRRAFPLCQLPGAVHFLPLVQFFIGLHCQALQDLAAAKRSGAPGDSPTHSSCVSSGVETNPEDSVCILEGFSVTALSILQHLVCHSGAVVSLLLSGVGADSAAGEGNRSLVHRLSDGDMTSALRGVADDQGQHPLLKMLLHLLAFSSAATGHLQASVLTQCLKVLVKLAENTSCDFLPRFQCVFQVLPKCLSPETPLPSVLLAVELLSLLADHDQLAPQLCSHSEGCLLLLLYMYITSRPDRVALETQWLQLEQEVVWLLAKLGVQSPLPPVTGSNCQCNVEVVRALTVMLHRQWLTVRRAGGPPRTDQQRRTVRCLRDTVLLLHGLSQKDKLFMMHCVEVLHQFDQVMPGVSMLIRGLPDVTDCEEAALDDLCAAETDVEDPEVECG

As for `Cc1sc2c(c1C)C(c1ccc(Cl)cc1)=N[C@@H](CC(=O)OC(C)(C)C)c1nnc(C)n1-2` [JQ1], the IC50 was above 10 µM.

For `COc1nnc2ccc(N3CCC(c4ccc(OCCN5CCN(C)C(=O)[C@H]5C)cc4)CC3)nn12` [AZD5153], the IC50 was above 10 µM.
